Reference: patent EP4722212A1, “NOVEL COMPOUND FOR INHIBITING PROTEIN KINASES AND PHARMACEUTICAL COMPOSITION COMPRISING SAME” (Magicbullettherapeutics Co., Ltd., priority 2023, dated 2024)

Tested on: C4-2B
Test: Cell line inhibition analysis (CCK-8, 72 h)
Assay type: cell-based
Settings: read-out: Cell growth inhibition GI50 C4-2B
Experimental: C4-2B and 22Rv1 cells were purchased from ATCC and cultured according to the manufacturer's instructions. The cells were seeded in 96-well plates at 7×10^3cells/100 µl/well and allowed to attach for one day. After removing the culture medium, 90 µl/well of fresh culture medium was added, followed by addition of 10 µl/well of culture medium containing compounds at nine concentrations (0.076-500 µM) serially diluted 3-fold and DMSO control to achieve final concentrations of 0-50 µM, and then cultured for 72 hours in a 37 °C CO2 incubator. Cell proliferation after 72 hours was assessed by adding 10 µl/well of CCK-8 solution, orbital shaking for 30 seconds, then incubating at 37 °C CO2 incubator for 2 hours and measuring absorbance at 450 nm using a microplate reader. The measured absorbance values were corrected by subtracting the absorbance of wells containing only culture medium and CCK-8 solution, and GI50 values were calculated using GraphPad Prism 8 software.
Meanwhile, in a separate 96-well plate, cells were seeded at 7 × 10^3 cells/100 µl/well, allowed to attach for one day, CCK-8 solution was added, and absorbance was measured to establish the 'Growth (%) = 0' value.

`Cc1ccc(NC(=O)c2ccc(F)c(F)c2)cc1N1Cc2cnc(N)nc2C2(CC2)C1=O` [Compound 9, N-(3-(2'-amino-7'-oxo-5'H-spiro[cyclopropane-1,8'-pyrido[4,3-d]pyrimidine]-6'(7'H)-yl)-4-methylphenyl)-3,4-difluorobenzamide] and `Cc1ccc(NC(=O)c2ccc(F)cc2F)cc1N1Cc2cnc(N)nc2C2(CC2)C1=O` [Compound 14, N-(3-(2'-amino-7'-oxo-5'H-spiro[cyclopropane-1,8'-pyrido[4,3-d]pyrimidine]-6'(7'H)-yl)-4-methylphenyl)-2,4-difluorobenzamide] cannot be ordered by GI50: greater than 10 µM for the first, greater than 10 µM for the second.

`Cc1ccc(NC(=O)c2cc(N3CCN(C)CC3)cc(C(F)(F)F)c2)cc1N1Cc2cnc(N)nc2C2(CC2)C1=O` [Compound 33, N-(3-(2'-amino-7'-oxo-5'H-spiro[cyclopropane-1,8'-pyrido[4,3-d]pyrimidine]-6'(7'H)-yl)-4-methylphenyl)-3-(4-methylpiperazin-1-yl)-5-(trifluoromethyl)benzamide] and `Cc1ccc(NC(=O)c2cc(N3CCNCC3)cc(C(F)(F)F)c2)cc1N1Cc2cnc(N)nc2C2(CC2)C1=O` [Compound 34, N-(3-(2'-amino-7'-oxo-5'H-spiro[cyclopropane-1,8'-pyrido[4,3-d]pyrimidine]-6'(7'H)-yl)-4-methylphenyl)-3-(piperazin-1-yl)-5-(trifluoromethyl)benzamide] fall in the same range of GI50: 5 to 10 µM for the first, 5 to 10 µM for the second.

`Cc1ccc(NC(=O)c2ccnc(C(F)(F)F)c2)cc1N1Cc2cnc(N)nc2C2(CC2)C1=O` [Compound 22, N-(3-(2'-amino-7'-oxo-5'H-spiro[cyclopropane-1,8'-pyrido[4,3-d]pyrimidine]-6'(7'H)-yl)-4-methylphenyl)-2-(trifluoromethyl)isonicotinamide] and `Cc1ccc(NC(=O)c2cccc(C(F)(F)F)n2)cc1N1Cc2cnc(N)nc2C2(CC2)C1=O` [Compound 21, N-(3-(2'-amino-7'-oxo-5'H-spiro[cyclopropane-1,8'-pyrido[4,3-d]pyrimidine]-6'(7'H)-yl)-4-methylphenyl)-6-(trifluoromethyl)picolinamide] cannot be ordered by GI50: greater than 10 µM for the first, greater than 10 µM for the second.

First: Cc1ccc(NC(=O)c2cc(F)cc(C(F)(F)F)c2)cc1N1Cc2cnc(NC3CC3)nc2C2(CC2)C1=O [Compound 27, N-(3-(2'-(cyclopropylamino)-7'-oxo-5'H-spiro[cyclopropane-1,8'-pyrido[4,3-d]pyrimidine]-6'(7'H)-yl)-4-methylphenyl)-3-fluoro-5-(trifluoromethyl)benzamide]
Second: Cc1ccc(NC(=O)c2cc(Br)cc(C(F)(F)F)c2)cc1N1Cc2cnc(NC3CC3)nc2C2(CC2)C1=O [Compound 13, 3-bromo-N-(3-(2'-(cyclopropylamino)-7'-oxo-5'H-spiro[cyclopropane-1,8'-pyrido[4,3-d]pyrimidine]-6'(7'H)-yl)-4-methylphenyl)-5-(trifluoromethyl)benzamide]
The GI50 of the first is lower: 5 to 10 µM for the first, greater than 10 µM for the second.

`Cc1ccc(NC(=O)c2ccc(F)c(F)c2)cc1N1Cc2cnc(NC3CC3)nc2C2(CC2)C1=O` [Compound 10, N-(3-(2'-(cyclopropylamino)-7'-oxo-5'H-spiro[cyclopropane-1,8'-pyrido[4,3-d]pyrimidine]-6'(7'H)-yl)-4-methylphenyl)-3,4-difluorobenzamide] and `Cc1ccc(NC(=O)c2cc(F)cc(F)c2)cc1N1Cc2cnc(NC3CC3)nc2C2(CC2)C1=O` [Compound 11, N-(3-(2'-(cyclopropylamino)-7'-oxo-5'H-spiro[cyclopropane-1,8'-pyrido[4,3-d]pyrimidine]-6'(7'H)-yl)-4-methylphenyl)-3,5-difluorobenzamide] cannot be ordered by GI50: greater than 10 µM for the first, greater than 10 µM for the second.

`Cc1ccc(NC(=O)c2ccc(C)c(C(F)(F)F)c2)cc1N1Cc2cnc(NC3CC3)nc2C2(CC2)C1=O` [Compound 12, N-(3-(2'-(cyclopropylamino)-7'-oxo-5'H-spiro[cyclopropane-1,8'-pyrido[4,3-d]pyrimidine]-6'(7'H)-yl)-4-methylphenyl)-4-methyl-3-(trifluoromethyl)benzamide] and `COCCN(C)c1cc(C(=O)Nc2ccc(C)c(N3Cc4cnc(NC5CC5)nc4C4(CC4)C3=O)c2)cc(C(F)(F)F)c1` [Compound 30, N-(3-(2'-(cyclopropylamino)-7'-oxo-5'H-spiro[cyclopropane-1,8'-pyrido[4,3-d]pyrimidine]-6'(7'H)-yl)-4-methylphenyl)-3-((2-methoxyethyl)(methyl)amino)-5-(trifluoromethyl)benzamide] fall in the same range of GI50: 1 to 5 µM for the first, 1 to 5 µM for the second.

Compared with `Cc1ccc(NC(=O)c2cc(N3CCNCC3)cc(C(F)(F)F)c2)cc1N1Cc2cnc(NC3CC3)nc2C2(CC2)C1=O` [Compound 35, N-(3-(2'-(cyclopropylamino)-7'-oxo-5'H-spiro[cyclopropane-1,8'-pyrido[4,3-d]pyrimidine]-6'(7'H)-yl)-4-methylphenyl)-3-(piperazin-1-yl)-5-(trifluoromethyl)benzamide], `Cc1ccc(NC(=O)c2cc(N3CCN(C)CC3)cc(C(F)(F)F)c2)cc1N1Cc2cnc(NC3CC3)nc2C2(CC2)C1=O` [Compound 32, N-(3-(2'-(cyclopropylamino)-7'-oxo-5'H-spiro[cyclopropane-1,8'-pyrido[4,3-d]pyrimidine]-6'(7'H)-yl)-4-methylphenyl)-3-(4-methylpiperazin-1-yl)-5-(trifluoromethyl)benzamide] is lower in GI50: 5 to 10 µM for the first, 1 to 5 µM for the second.

`Cc1ccc(NC(=O)c2cc(C(F)(F)F)cc(Cl)c2F)cc1N1Cc2cnc(N)nc2C2(CC2)C1=O` [Compound 17, N-(3-(2'-amino-7'-oxo-5'H-spiro[cyclopropane-1,8'-pyrido[4,3-d]pyrimidine]-6'(7'H)-yl)-4-methylphenyl)-3-chloro-2-fluoro-5-(trifluoromethyl)benzamide] and `Cc1ccc(NC(=O)c2cc(C(F)(F)F)ccc2F)cc1N1Cc2cnc(N)nc2C2(CC2)C1=O` [Compound 18, N-(3-(2'-amino-7'-oxo-5'H-spiro[cyclopropane-1,8'-pyrido[4,3-d]pyrimidine]-6'(7'H)-yl)-4-methylphenyl)-2-fluoro-5-(trifluoromethyl)benzamide] cannot be ordered by GI50: greater than 10 µM for the first, greater than 10 µM for the second.

First: COc1cccc(C(=O)Nc2ccc(C)c(N3Cc4cnc(N)nc4C4(CC4)C3=O)c2)c1 [Compound 16, N-(3-(2'-amino-7'-oxo-5'H-spiro[cyclopropane-1,8'-pyrido[4,3-d]pyrimidine]-6'(7'H)-yl)-4-methylphenyl)-3-methoxybenzamide]
Second: Cc1ccc(NC(=O)c2cc(F)cc(F)c2)cc1N1Cc2cnc(N)nc2C2(CC2)C1=O [Compound 15, N-(3-(2'-amino-7'-oxo-5'H-spiro[cyclopropane-1,8'-pyrido[4,3-d]pyrimidine]-6'(7'H)-yl)-4-methylphenyl)-3,5-difluorobenzamide]
The GI50 of the first is higher: greater than 10 µM for the first, 5 to 10 µM for the second.

First: Cc1ccc(NC(=O)c2cc(N(C)CCN(C)C)cc(C(F)(F)F)c2)cc1N1Cc2cnc(N)nc2C2(CC2)C1=O [Compound 37, N-(3-(2'-amino-7'-oxo-5'H-spiro[cyclopropane-1,8'-pyrido[4,3-d]pyrimidine]-6'(7'H)-yl)-4-methylphenyl)-3-((2-(dimethylamino)ethyl)(methyl)amino)-5-(trifluoromethyl)benzamide]
Second: Cc1ccc(NC(=O)c2cc(N(C)CCN(C)C)cc(C(F)(F)F)c2)cc1N1Cc2cnc(NC3CC3)nc2C2(CC2)C1=O [Compound 36, N-(3-(2'-(cyclopropylamino)-7'-oxo-5'H-spiro[cyclopropane-1,8'-pyrido[4,3-d]pyrimidine]-6'(7'H)-yl)-4-methylphenyl)-3-((2-(dimethylamino)ethyl)(methyl)amino)-5-(trifluoromethyl)benzamide]
The GI50 of the first is higher: greater than 10 µM for the first, 5 to 10 µM for the second.

With `Cc1ccc(NC(=O)c2cc(O)cc(C(F)(F)F)c2)cc1N1Cc2cnc(N)nc2C2(CC2)C1=O` [Compound 23, N-(3-(2'-amino-7'-oxo-5'H-spiro[cyclopropane-1,8'-pyrido[4,3-d]pyrimidine]-6'(7'H)-yl)-4-methylphenyl)-3-hydroxy-5-(trifluoromethyl)benzamide] the GI50 was 5 to 10 µM.

Biological target: T1, ACK1 (Homo sapiens, UniProt Q07912)
T1 construct: purchased Reaction Biology (RBC)
Test: Enzyme activity inhibition (Reaction Biology)
Assay type: biochemical
Settings: not given
Experimental: [* <10 nM: A, <100 nM: B, >100 nM: C]. [Table 7]

T1 sequence (Q07912 whole entry): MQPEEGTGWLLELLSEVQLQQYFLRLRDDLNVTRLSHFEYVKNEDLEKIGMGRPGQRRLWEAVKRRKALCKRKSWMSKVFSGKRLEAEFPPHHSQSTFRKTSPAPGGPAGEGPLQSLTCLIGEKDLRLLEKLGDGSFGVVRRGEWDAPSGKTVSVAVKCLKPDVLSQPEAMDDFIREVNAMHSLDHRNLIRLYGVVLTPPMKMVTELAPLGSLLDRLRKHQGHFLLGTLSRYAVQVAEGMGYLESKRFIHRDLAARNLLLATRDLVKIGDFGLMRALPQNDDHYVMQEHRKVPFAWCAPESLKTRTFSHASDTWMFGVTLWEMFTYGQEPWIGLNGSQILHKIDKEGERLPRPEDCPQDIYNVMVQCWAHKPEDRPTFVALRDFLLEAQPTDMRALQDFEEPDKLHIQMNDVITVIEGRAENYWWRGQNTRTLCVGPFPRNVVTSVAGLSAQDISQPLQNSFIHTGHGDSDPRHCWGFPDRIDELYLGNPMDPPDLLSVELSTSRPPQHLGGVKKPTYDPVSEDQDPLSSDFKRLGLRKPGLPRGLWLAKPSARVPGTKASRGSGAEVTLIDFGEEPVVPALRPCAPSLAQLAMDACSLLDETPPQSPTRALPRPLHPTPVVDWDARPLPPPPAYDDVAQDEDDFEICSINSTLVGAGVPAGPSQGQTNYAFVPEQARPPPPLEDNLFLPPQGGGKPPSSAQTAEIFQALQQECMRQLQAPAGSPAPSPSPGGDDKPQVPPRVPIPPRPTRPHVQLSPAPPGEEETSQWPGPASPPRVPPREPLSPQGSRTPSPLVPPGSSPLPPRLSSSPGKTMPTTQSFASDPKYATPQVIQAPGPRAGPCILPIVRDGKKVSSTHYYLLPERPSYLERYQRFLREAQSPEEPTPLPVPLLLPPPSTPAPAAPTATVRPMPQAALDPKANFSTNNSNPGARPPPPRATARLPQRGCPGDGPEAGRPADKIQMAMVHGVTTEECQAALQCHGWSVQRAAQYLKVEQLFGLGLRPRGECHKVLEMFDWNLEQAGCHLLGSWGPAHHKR

`Cc1ccc(NC(=O)c2cccc(C(F)(F)F)c2)cc1N1Cc2cnc(NO)nc2C2(CC2)C1=O` [Compound 70, N-(3-(2'-(hydroxyamino)-7'-oxo-5'H-spiro[cyclopropane-1,8'-pyrido[4,3-d]pyrimidine]-6'(7'H)-yl)-4-methylphenyl)-3-(trifluoromethyl)benzamide] showed an IC50 of 10 to 100 nM.
